Key:
HCN4 = biological target: T1, HCN4 (Homo sapiens, UniProt Q9Y3Q4); assay: HCN4 automated patch clamp current inhibition assay (Ionworks Barracuda); assay type: cell-based; settings: HEK-293 cells stably expressing HCN4; current inhibition during a hyperpolarizing pulse of -100 mV
T1 construct: expressed in transfected cells
T1 sequence (Q9Y3Q4 1-1203): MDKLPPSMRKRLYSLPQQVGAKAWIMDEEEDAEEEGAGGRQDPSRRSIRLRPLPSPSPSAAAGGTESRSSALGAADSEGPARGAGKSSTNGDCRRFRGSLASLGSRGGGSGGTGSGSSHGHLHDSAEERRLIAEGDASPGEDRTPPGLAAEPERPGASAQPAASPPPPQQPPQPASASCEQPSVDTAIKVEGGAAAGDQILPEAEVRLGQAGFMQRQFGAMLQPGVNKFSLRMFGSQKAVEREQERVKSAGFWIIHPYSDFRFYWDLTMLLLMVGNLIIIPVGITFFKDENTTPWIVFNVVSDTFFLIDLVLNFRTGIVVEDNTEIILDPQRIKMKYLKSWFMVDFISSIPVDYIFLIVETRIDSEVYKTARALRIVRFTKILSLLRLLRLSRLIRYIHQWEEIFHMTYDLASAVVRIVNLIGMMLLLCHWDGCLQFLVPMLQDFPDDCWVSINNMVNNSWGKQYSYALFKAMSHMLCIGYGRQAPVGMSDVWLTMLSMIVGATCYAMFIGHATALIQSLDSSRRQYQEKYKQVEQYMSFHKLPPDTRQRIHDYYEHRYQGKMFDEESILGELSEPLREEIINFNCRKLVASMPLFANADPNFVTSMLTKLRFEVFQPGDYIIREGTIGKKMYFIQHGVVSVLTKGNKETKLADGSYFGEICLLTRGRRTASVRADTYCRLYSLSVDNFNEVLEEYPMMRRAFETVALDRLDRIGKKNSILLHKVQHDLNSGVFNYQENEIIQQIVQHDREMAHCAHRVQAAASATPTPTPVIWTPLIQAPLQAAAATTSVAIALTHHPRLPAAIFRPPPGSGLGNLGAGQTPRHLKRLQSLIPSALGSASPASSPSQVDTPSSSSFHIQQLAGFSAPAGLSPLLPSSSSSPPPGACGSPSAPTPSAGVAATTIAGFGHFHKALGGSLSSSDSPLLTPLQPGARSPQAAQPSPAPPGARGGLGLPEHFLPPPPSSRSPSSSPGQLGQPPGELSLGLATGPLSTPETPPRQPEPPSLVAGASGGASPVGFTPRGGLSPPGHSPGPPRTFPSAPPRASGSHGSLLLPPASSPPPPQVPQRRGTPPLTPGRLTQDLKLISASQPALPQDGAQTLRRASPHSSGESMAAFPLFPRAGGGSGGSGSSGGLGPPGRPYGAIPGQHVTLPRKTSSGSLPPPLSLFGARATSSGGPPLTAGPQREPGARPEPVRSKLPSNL
Protocol: (§1) In vitro, high-throughput cellular electrophysiology was employed to detect voltage- and use-dependence of compounds in single concentration screening and IC50 determination for library and medicinal chemistry profiling compounds in 384 well plates.
(§2) Cell cultures were maintained in DMEM/F12 cell growth media containing FBS and appropriate antibiotics at 37° C., 5% CO2 for a maximum of 20 passages. At a time point of 40-72 hours prior to assay, the expression of HCN protein in the cells is induced by addition of tetracyclin. Cells may be incubated at 27° C. for 2-24 hours of induction. […] Cells were harvested at 80% confluency and resuspended in extracellular buffer and added to wells. A freshly prepared Escin solution was added to intracellular buffer and applied to establish whole cell recording via perforated patch clampling by APC.
(§3) Currents through activated channels were measured directly by APC by employing hyperpolarizing voltage steps. The activation window was increased and stabilized by the addition of cell permeable Br-cAMP. Baselines were established for both use- and voltage-dependence protocols using a −30 mV holding potential and multiple test pulses at −100 mV or by 20 mV steps from −120 to 0 mV, respectively. Test compounds were added after baseline recordings followed by a 10 min incubation, voltage-dependency protocol recording, and use-dependency recording. Data was corrected for baseline and rundown (well based) and normalized for % inhibition (plate based). Five previously reported HCN inhibitors of varying potencies and selectivities and zatebradine were used for run to run and plate to plate quality controls. […] Percent inhibition was analysed at −80, −100, −120 mV of the voltage-dependency protocol and at pulse 0 and 50 of the use-dependency protocols. Selectivity was assessed against HCN2, HCN3, and HCN4 overexpressing cell lines using similar methods. As HCN4 has a slower activation than the other HCN channels, activation was extended to achieve steady state activation.

HCN1 = biological target: T2, HCN1 (Homo sapiens, UniProt O60741); assay: HCN1 automated patch clamp current inhibition assay (Ionworks Barracuda); assay type: cell-based; settings: HEK-293 cells stably expressing HCN1; current inhibition during a hyperpolarizing pulse of -100 mV
T2 construct: expressed in transfected cells
T2 sequence (O60741 1-890): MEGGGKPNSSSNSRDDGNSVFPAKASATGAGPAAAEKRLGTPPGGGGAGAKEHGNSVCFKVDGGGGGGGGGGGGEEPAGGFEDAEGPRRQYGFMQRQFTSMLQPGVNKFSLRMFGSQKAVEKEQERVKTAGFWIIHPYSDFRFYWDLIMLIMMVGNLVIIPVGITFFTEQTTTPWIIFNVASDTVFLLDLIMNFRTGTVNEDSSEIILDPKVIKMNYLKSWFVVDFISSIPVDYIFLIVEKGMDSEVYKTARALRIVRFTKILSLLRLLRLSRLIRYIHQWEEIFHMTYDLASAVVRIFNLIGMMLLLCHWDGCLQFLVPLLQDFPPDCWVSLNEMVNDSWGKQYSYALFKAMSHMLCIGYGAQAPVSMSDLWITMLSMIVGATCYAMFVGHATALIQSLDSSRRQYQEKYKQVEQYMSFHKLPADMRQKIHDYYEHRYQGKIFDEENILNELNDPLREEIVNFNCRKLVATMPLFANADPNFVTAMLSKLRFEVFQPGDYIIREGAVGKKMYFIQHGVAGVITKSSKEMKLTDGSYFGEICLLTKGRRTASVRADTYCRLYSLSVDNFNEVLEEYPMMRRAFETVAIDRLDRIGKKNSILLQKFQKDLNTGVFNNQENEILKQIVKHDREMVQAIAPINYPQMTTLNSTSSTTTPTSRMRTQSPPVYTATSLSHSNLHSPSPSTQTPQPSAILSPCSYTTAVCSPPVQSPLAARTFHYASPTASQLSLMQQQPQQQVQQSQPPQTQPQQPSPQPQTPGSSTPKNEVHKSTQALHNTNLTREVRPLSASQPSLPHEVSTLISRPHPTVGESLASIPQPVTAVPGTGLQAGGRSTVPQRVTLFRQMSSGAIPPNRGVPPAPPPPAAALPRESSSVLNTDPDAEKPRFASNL
Protocol: as §1, §2, §3

| SMILES | IC50 (HCN4) [nM] | IC50 (HCN1) [nM] |
| --- | --- | --- |
| Cc1cnc(-n2c(C(N)=O)nc(C#Cc3ccnc(Cl)c3C)c2C)cn1 [Example 23, 4-[2-(2-Chloro-3-methyl-4-pyridyl)ethynyl]-5-methyl-1-(5-methylpyrazin-2-yl)imidazole-2-carboxamide] | > 40000 | 303 |
| Cc1cccc(C#Cc2nc(C(N)=O)n(-c3ccc(C)nc3)c2C)c1 [Example 10, 5-Methyl-1-(6-methylpyridin-3-yl)-4-(m-tolylethynyl)-1H-imidazole-2-carboxamide] | > 40000 | 579 |
| Cc1ccc(-n2c(C(N)=O)nc(C#Cc3ccnc(Cl)c3)c2C)cn1 [Example 6, 4-(2-Chloro-pyridin-4-ylethynyl)-5-methyl-1-(6-methyl-pyridin-3-yl)-1H-imidazole-2-carboxylic Acid Amide] | > 40000 | 260 |
| Cc1ccc(-n2c(C(N)=O)nc(C#Cc3csc(Cl)c3)c2C)cn1 [Example 3, 4-[2-(5-Chlorothiophen-3-yl)ethynyl]-5-methyl-1-(6-methylpyridin-3-yl)imidazole-2-carboxamide] | > 40000 | 100 |
| Cc1ccc(-n2c(C(N)=O)nc(C#Cc3cccc(Cl)c3)c2C)cn1 [Example 4, 4-[2-(3-Chlorophenyl)ethynyl]-5-methyl-1-(6-methyl-3-pyridyl)imidazole-2-carboxamide] | > 40000 | 225 |
| COc1cccc(C#Cc2nc(C(N)=O)n(-c3ccc(C)nc3)c2C)c1 [Example 8, 4-((3-Methoxyphenyl)ethynyl)-5-methyl-1-(6-methylpyridin-3-yl)-1H-imidazole-2-carboxamide] | > 40000 | 460 |
| Cc1ccc(-n2c(C(N)=O)nc(C#Cc3cccc(C#N)c3)c2C)cn1 [Example 5, 4-((3-Cyanophenyl)ethynyl)-5-methyl-1-(6-methylpyridin-3-yl)-1H-imidazole-2-carboxamide] | > 40000 | 240 |
| Cc1ccc(-n2c(C(N)=O)nc(C#Cc3ccnc(Cl)c3C)c2C)cn1 [Example 1, 4-((2-Chloro-3-methylpyridin-4-yl)ethynyl)-5-methyl-1-(6-methylpyridin-3-yl)-1H-imidazole-2-carboxamide] | > 40000 | 159 |
| Cc1ccc(-n2c(C(N)=O)nc(C#Cc3ccnc(Cl)c3F)c2C)cn1 [Example 2, 4-((2-Chloro-3-fluoropyridin-4-yl)ethynyl)-5-methyl-1-(6-methylpyridin-3-yl)-1H-imidazole-2-carboxamide] | > 40000 | 173 |

Second part, the compound after the results:

| IC50 (HCN4) [nM] | IC50 (HCN1) [nM] | SMILES |
| --- | --- | --- |
| > 40000 | 51 | COc1ccc(-n2c(C(N)=O)nc(C#Cc3ccnc(Cl)c3C)c2C)cn1 [Example 27, 4-[2-(2-Chloro-3-methyl-4-pyridyl)ethynyl]-1-(6-methoxy-3-pyridyl)-5-methyl-imidazole-2-carboxamide] |
| > 40000 | 232 | Cc1ccc(-n2c(C(N)=O)nc(C#Cc3ccnc(Cl)c3)c2C)cc1 [Example 38, 4-[2-(2-Chloro-4-pyridyl)ethynyl]-5-methyl-1-(p-tolyl)imidazole-2-carboxamide] |
| > 40000 | 429 | Cc1ccc(-c2c(C(N)=O)nc(C#Cc3ccnc(Cl)c3)n2C)cn1 [Example 32, 2-[2-(2-Chloro-4-pyridyl)ethynyl]-1-methyl-5-(6-methyl-3-pyridyl)imidazole-4-carboxamide] |
| > 40000 | 383 | Cc1c(C#Cc2ccnc(Cl)c2)nc(C(N)=O)n1-c1ccc(Cl)cc1 [Example 39, 1-(4-Chlorophenyl)-4-((2-chloropyridin-4-yl)ethynyl)-5-methyl-1H-imidazole-2-carboxamide] |
| > 40000 | 231 | Cc1ccc(-n2c(C(N)=O)cc(C#Cc3ccnc(Cl)c3)c2C)cn1 [Example 31, 4-[2-(2-Chloro-4-pyridyl)ethynyl]-5-methyl-1-(6-methyl-3-pyridyl)pyrrole-2-carboxamide] |
| > 40000 | 192 | Cc1ccc(-n2c(C(N)=O)nc(C#Cc3ccnc(Cl)c3C)c2C)nc1 [Example 28, 4-[2-(2-Chloro-3-methyl-4-pyridyl)ethynyl]-5-methyl-1-(5-methyl-2-pyridyl)imidazole-2-carboxamide] |
| > 40000 | 2520 | NC(=O)c1nc(C#Cc2ccnc(Cl)c2)cn1-c1ccc(F)cc1 [Example 42, 4-(2-Chloro-pyridin-4-ylethynyl)-1-(4-fluoro-phenyl)-1H-imidazole-2-carboxylic Acid Amide] |
| > 40000 | 241 | Cc1c(C#Cc2nc(C(N)=O)n(-c3ccc(Cl)nc3)c2C)ccnc1Cl [Example 26, 4-[2-(2-Chloro-3-methyl-4-pyridyl)ethynyl]-1-(6-chloro-3-pyridyl)-5-methyl-imidazole-2-carboxamide] |

— US12528784B2, “Alkynyl-(heteroaryl)-carboxamide HCN1 inhibitors” (Hoffmann-La Roche Inc., priority 2019, dated 2026)
